Experiments:
Type in all cases: cell-based
[1] = molecular target: T1, MRGPRX1 (Homo sapiens, UniProt Q96LB2); test: β-arrestin assay, CHO cells expressing MRGPRX1 (subtype selectivity); settings: 10 µM, versus BAM-22P (8.5 µM)
T1 construct: host or cells: CHO-K1 beta-arrestin-2 (EA) cells
Experimental: (§1) Fig. 1 Characterization of MRGPRX2 inhibitor 1. a Chemical structure and molecular weight (MW) of 1. b Concentration-response curve of 1 determined in β-arrestin recruitment assays. CHO cells that recombinantly express MRGPRX2 were employed versus the agonist CST-14 (at its EC80 value of 1.0 µM). […] Data are means ± SEM of 3 biological replicates, performed in duplicates. c MRGPRX subtype selectivity of 1 (10 µM) determined in β-arrestin assays using CHO cells that recombinantly express the respective MRGPRX subtype. MRGPRX1 was activated by BAM-22P (8.5 µM),[19] MRGPRX2 was activated by CST-14 (1 µM), MRGPRX3 was activated by PSB-20294 (1 µM), and MRGPRX4 by PSB-18061 (2.6 µM).[44] […] The effect of each MRGPRX agonist was assessed in the absence and in the presence of 1; results were normalized to the maximal agonist effect. […] Statistical significance was determined by one-way ANOVA (Tukey’s multiple comparisons) test (ns P > 0.05 and ****P < 0.0001) TEXT PRINTED IN THE PICTURE: (a) 1 Hit compound: MW: 241.29 g/mol
(§2) Fig. 3 Biological characterization of PSB-172656. a Selectivity of PSB-172656 (100 nM) for MRGPRX2 over MRGPRX1, MRGPRX3, and MRGPRX4 measured in β-arrestin assays utilizing β-arrestin-CHO cells with recombinant expression of the respective receptor. […] Statistical significance was determined by one-way ANOVA (Tukey’s multiple comparison) test (ns P > 0.05). […]

[2] = molecular target: T2, MRGPRX4 (Homo sapiens, UniProt Q96LA9); test: β-arrestin assay, CHO cells expressing MRGPRX4 (subtype selectivity); settings: 10 µM, versus PSB-18061 (2.6 µM)
T2 construct: host or cells: CHO-K1 beta-arrestin-2 (EA) cells
Experimental: as §1, §2

[3] = molecular target: T3, MRGPRX2 (Homo sapiens, UniProt Q96LB1); test: TRUPATH Gαq dissociation assay, LN229 cells expressing MRGPRX2; parameters: expressed in transfected cells; host or cells: LN229 human glioblastoma cells; plasmid pLXSN-MRGPRX2 (Addgene #213960); settings: 100 nM, preincubation
T3 sequence (Q96LB1 1-330): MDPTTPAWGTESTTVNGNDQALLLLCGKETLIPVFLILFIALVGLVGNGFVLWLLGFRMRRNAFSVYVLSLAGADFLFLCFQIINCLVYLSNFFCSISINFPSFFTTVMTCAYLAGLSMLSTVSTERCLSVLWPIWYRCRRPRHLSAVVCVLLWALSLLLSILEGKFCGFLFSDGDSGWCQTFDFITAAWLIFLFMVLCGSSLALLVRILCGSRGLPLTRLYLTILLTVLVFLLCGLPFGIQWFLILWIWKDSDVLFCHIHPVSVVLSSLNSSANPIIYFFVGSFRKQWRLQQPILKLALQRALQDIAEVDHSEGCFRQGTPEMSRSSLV
Experimental: Fig. 3 Biological characterization of PSB-172656. a Selectivity of PSB-172656 (100 nM) for MRGPRX2 over MRGPRX1, MRGPRX3, and MRGPRX4 measured in β-arrestin assays utilizing β-arrestin-CHO cells with recombinant expression of the respective receptor. MRGPRX1 was activated by BAM-22P (8.5 µM),[19] MRGPRX2 was activated by CST-14 (1 µM), MRGPRX3 was activated by PSB-20294 (10 µM), MRGPRX4 was activated by PSB-18061 (2.6 µM).[44] Data represent mean values ± SEM of 3-4 biological replicates, performed in duplicates. […] Data are means ± SEM of 3 biological replicates, in duplicates. Statistical significance was determined by one-way ANOVA (Tukey’s multiple comparison) test (ns P > 0.05). […] Data are means ± SEM of 3 biological replicates, performed in duplicates. e Shift assay to determine inhibition type of PSB-172656 versus CST-14. […] Extrapolated data were not used for analysis but only shown for a comprehensive view. f Schild plot for the effect of PSB-172656 on the concentration-response curves for CST-14. […]
To further investigate PSB-172656 signaling, direct activation of the relevant G protein subunits, Gαq and Gαi1,[32] was studied. This was assessed using G protein dissociation assays and LN229 cells stably overexpressing MRGPRX2 while transiently expressing the investigated G protein (Fig. 3c, d).[47]

T1 sequence (Q96LB2 whole entry): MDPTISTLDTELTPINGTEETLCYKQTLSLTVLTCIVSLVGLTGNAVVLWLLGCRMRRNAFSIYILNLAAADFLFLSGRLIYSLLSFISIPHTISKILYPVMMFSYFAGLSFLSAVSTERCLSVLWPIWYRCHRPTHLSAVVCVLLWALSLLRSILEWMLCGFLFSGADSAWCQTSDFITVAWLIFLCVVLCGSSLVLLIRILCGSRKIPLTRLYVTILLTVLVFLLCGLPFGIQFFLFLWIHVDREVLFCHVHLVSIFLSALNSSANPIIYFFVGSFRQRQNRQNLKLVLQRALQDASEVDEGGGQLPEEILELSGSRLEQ
T2 sequence (Q96LA9 whole entry): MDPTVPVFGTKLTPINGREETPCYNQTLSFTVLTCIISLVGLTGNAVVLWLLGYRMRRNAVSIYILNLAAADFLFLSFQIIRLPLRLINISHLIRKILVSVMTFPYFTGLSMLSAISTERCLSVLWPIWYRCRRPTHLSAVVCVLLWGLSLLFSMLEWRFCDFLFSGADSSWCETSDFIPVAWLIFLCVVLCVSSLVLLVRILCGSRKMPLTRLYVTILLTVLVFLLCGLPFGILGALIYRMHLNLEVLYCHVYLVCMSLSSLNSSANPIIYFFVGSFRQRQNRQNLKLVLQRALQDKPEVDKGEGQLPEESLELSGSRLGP

Row | inhibition of MRGPRX1 activation [1] | inhibition of MRGPRX4 activation [2] | inhibition of CST-14-induced Gαq dissociation [3] | Structure (SMILES)
1 | no inhibition | no inhibition | – | CCCc1c(C)[nH]c2nc3ccccc3n2c1=O [Compound 1, 2-methyl-3-propylbenzo[4,5]imidazo[1,2-a]pyrimidin-4(1H)-one]
2 | not able to block | not able to block | completely inhibited | CCc1c(C(C)C)[nH]c2nc3cc(F)c(F)cc3n2c1=O [Compound 24, 3-ethyl-7,8-difluoro-2-isopropylbenzo[4,5]imidazo [1,2-a] pyrimidin-4(1H)-one]

— PMC12010006, “Subnanomolar MAS-related G protein-coupled receptor-X2/B2 antagonists with efficacy in human mast cells and disease models” (Signal Transduction and Targeted Therapy, 2025)
